# Literature values, collected in US20080194494A1, “4-Biarylyl-1-Phenylazetidin-2-One Glucuronide Derivatives for Hypercholesterolemia” (MICROBIA, INC., priority 2005, published 2008).
# Assays:
# [1] = in humans
# [2] = in vivo
smiles,measurement,setting,value
"O=C1[C@H](CC[C@H](O)c2ccc(F)cc2)[C@@H](c2ccc(O)cc2)N1c1ccc(F)cc1 [ezetimibe, (3R,4S)-1-(4-fluorophenyl)-3-[(3S)-3-(4-fluorophenyl)-3-hydroxypropyl]-4-(4-hydroxyphenyl)azetidin-2-one]",effect on fat-soluble vitamin absorption,[1],does not appear to affect
same,inhibition of the absorption of taurocholic acid,[2],does not inhibit
